According to ChEMBL document CHEMBL1130257, “(Aryloxy)alkylamines as selective human dopamine D4 receptor antagonists: potential antipsychotic agents” (J Med Chem, 1997):

Key:
D(4) dopamine receptor = target: T1, D(4) dopamine receptor (Homo sapiens, UniProt P21917); experiment: biochemical
T1 sequence (P21917 whole entry): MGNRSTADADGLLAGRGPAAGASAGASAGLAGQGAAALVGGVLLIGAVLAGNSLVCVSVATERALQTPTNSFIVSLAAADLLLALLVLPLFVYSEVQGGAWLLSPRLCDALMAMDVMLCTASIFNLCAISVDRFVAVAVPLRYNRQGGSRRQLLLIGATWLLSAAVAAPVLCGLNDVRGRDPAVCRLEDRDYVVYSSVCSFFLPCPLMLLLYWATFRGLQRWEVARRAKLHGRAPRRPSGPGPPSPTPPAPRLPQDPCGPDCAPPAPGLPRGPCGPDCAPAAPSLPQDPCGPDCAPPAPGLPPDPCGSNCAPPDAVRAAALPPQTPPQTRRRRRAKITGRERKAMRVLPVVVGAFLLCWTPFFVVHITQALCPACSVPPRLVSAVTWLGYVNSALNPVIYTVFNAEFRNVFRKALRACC
Description: Binding affinity to recombinant human dopamine receptor D4 expressed in CHO cells by displacement of [3H]spiperone

D(3) dopamine receptor = D(3) dopamine receptor (Homo sapiens, UniProt P35462); experiment: biochemical
D(3) dopamine receptor, sequence (P35462 whole entry): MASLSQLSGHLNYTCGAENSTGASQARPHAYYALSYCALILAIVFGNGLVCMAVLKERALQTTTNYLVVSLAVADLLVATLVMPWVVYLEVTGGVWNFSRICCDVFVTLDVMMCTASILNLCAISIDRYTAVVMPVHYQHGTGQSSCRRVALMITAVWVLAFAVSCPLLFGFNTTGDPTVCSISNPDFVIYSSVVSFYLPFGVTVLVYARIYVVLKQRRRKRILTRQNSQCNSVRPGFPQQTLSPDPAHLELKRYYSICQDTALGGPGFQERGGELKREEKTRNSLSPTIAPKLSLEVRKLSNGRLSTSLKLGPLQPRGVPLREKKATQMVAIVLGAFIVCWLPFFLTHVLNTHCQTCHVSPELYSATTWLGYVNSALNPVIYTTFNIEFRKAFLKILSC
Description: Binding affinity against cloned human dopamine receptor D3 expressed in Chinese hamster ovary (CHO) K-1 cells by displacement of [3H]spiperone.

Structure (SMILES) | Ki (D(4) dopamine receptor) [nM] | Ki (D(3) dopamine receptor) [nM]
Clc1ccc(OCCNCCCOc2ccc(Br)cc2)cc1 | 38 | –
Cc1cccc(OCCNCCCOc2ccccc2)c1 | 0.46 | –
COc1ccc(OCCNCCCOc2ccccc2)cc1 | 5.4 | 369
Cc1ccc(SCCNCCCOc2ccccc2)cc1 | 30 | –
Cc1ccccc1OCCNCCCOc1ccccc1 | 74 | –
c1ccc(OCCCNCCOc2ccccc2)cc1 | 2 | 136
Cc1ccc(OCCNCCCOc2ccccc2)cc1 | 0.52 | 169
Clc1cccc(OCCNCCCOc2ccccc2)c1 | 0.31 | –
Fc1ccc(OCCCNCCOc2ccc(Cl)cc2)cc1 | 0.84 | 98
Cc1ccc(OCCNCCCOc2ccccc2)cc1C | 0.35 | 73
c1ccc(CCCNCCCOc2ccccc2)cc1 | 3.3 | 17
Clc1ccc(SCCNCCCOc2ccccc2)cc1 | 33 | –
Cc1ccc(OCCCNCCOc2ccc(C)cc2)cc1 | 11 | 235
Cc1ccc(OCCNCCCSc2ccccc2)cc1 | 0.8 | 56
O=C(O)c1ccc(OCCNCCCOc2ccccc2)cc1 | > 1000 | –
Cc1ccc(OCCCNCCOc2ccccc2)cc1 | 2.7 | –
Cc1ccc(OCCNCCCOc2ccc(F)cc2)cc1 | 0.96 | 232
Clc1ccccc1OCCNCCCOc1ccccc1 | 4.4 | 17
Cc1ccc(OCCCNCCOc2ccc(Cl)cc2)cc1 | 5.6 | 177
Cc1ccc(OCCNCCCOc2ccccc2)cc1Cl | 0.52 | 3.9
O=[N+]([O-])c1ccc(OCCNCCCOc2ccccc2)cc1 | 4.4 | 345
Oc1ccc(OCCNCCCOc2ccccc2)cc1 | 3.1 | 236
Cc1ccc(OCCNCCCOc2ccccc2C)cc1 | 1.1 | 381
Cc1ccc(CCCNCCCOc2ccccc2)cc1 | 4.7 | –
Clc1ccc(OCCNCCCSc2ccccc2)cc1 | 1.4 | 95
Cc1ccc(OCCNCCCOc2ccc(Br)cc2)cc1 | 27 | 1700
Cc1ccc(OCCNCCCOc2cccc(C)c2)cc1 | 1.2 | 192
